The target in this assay is T1, α4β1 integrin (Homo sapiens, UniProt P05556+P13612).
T1 construct: endogenous in cells; host or cells: U-937 cells
T1 sequence (P13612 34-1032): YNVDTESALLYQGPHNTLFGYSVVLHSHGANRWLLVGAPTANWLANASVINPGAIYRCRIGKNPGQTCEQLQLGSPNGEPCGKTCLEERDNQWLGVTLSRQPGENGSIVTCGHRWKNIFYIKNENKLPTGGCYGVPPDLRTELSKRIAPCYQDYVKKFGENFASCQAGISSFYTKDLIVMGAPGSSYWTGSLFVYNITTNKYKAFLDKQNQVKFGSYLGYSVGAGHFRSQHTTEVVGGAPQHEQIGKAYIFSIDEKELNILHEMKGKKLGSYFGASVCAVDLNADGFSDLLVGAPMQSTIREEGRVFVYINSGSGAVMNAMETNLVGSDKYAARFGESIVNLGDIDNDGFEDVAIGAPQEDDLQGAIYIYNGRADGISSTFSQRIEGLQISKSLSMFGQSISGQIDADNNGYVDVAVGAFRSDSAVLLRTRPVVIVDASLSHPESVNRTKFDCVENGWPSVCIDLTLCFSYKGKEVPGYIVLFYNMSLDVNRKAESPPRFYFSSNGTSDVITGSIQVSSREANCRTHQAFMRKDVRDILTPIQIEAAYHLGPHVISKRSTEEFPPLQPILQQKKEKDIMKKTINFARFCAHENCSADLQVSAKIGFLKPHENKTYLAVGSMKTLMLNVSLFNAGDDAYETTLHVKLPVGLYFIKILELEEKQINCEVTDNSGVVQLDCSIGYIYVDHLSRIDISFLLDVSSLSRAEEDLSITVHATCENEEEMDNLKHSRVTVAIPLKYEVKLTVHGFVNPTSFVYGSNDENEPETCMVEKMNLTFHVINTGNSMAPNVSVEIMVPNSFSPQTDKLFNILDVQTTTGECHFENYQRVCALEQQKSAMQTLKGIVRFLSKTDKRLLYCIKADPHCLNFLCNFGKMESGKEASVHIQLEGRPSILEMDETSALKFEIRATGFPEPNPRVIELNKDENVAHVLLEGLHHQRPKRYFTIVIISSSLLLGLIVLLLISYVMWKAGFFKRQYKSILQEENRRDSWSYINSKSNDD
T1 sequence (P05556 21-798): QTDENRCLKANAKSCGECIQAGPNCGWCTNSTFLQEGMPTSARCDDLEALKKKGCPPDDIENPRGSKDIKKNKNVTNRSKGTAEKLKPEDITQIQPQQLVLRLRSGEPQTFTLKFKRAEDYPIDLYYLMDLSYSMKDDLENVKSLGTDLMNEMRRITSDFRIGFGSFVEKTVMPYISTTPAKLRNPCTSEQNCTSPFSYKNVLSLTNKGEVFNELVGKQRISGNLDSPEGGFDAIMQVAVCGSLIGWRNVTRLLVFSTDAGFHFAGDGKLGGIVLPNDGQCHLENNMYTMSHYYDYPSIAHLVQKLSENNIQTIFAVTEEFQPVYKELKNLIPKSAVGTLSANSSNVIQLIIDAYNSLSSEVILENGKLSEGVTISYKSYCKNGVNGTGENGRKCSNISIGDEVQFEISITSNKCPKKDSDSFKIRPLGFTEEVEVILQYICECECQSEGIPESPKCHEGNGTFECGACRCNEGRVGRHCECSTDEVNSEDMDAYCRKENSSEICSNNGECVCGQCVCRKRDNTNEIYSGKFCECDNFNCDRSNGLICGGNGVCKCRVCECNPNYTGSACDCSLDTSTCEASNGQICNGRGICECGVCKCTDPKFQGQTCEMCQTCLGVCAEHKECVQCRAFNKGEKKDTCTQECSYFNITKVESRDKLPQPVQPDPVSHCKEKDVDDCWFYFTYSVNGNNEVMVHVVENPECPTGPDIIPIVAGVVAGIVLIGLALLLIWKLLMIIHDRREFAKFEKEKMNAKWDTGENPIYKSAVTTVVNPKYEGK
The experiment in a line: U-937 Cell Adhesion to Human VCAM-1 (α4β1 Binding Assay). The assay is classed as cell-based. The note with it: read-out: IC50 values in the α4β1 assays. On the procedure: Recombinant human soluble VCAM-1. (R&D Systems Ltd., UK) at 2 μg/ml in PBS was immobilized overnight onto microtiter plates. Unbound VCAM-1 was washed away and VCAM-1 coated plates were blocked with bovine serum albumin (BSA) 2.5% in PBS for 2 h at room temperature. U-937 cells were labelled with 5-carboxyfluorescein diacetate (5-CFDA) in order to detect bound cells to the wells. Test compounds were added to the wells followed by U-937 cells and the adhesion assay was performed for 1 h at 37° C. Following incubation, the wells were emptied and washed. Inhibition of binding was measured by the quantity of fluorescence bound to the plate for each of the various concentrations of test compound, as well as for controls containing no test compound, with a Cytofluor 2300 fluorescence measurement system.
For `CC(C)CN([C@H](C)c1ccccc1)S(=O)(=O)N[C@@H](Cc1ccc(NC(=O)c2c(Cl)cncc2Cl)cc1)C(=O)O` [Example 77, (2S)-3-{4-[(3,5-dichloroisonicotinoyl)amino]phenyl}-2-[({isobutyl[(1R)-1-phenylethyl]amino}sulfonyl)amino]propionic acid], the IC50 is less than 100 nM.
With `CC(C)N(C1CCCC1)S(=O)(=O)N[C@@H](Cc1ccc(NC(=O)c2c(Cl)cncc2Cl)cc1)C(=O)O` [Example 71, (2S)-2-({[cyclopentyl(isopropyl)amino]sulfonyl}amino)-3-{4-[(3,5-dichloroisonicotinoyl)amino]phenyl}propionic acid], the IC50 was less than 100 nM.
Regarding `O=C(Nc1ccc(C[C@H](NS(=O)(=O)Nc2ccccc2S(=O)(=O)c2ccccc2)C(=O)O)cc1)c1c(Cl)cncc1Cl` [Example 81], the IC50 was less than 100 nM.
With `O=C(Nc1ccc(C[C@H](NS(=O)(=O)NCc2ccccc2)C(=O)O)cc1)c1c(Cl)cccc1Cl` [Example 3, (2S)-2-(N-benzylaminosulfonilamino)-3-[4-(2,6dichlorobenzoylamino)phenyl]propionic acid], the half-inhibitory concentration (IC50) is less than 100 nM.

Usually IC50 stands for the concentration needed to halve the response being measured.
